Source: US8846698B2, “Pyrrolo[2,3-d]pyrimidine tropomysin-related kinase inhibitors” (Pfizer Limited, priority 2011, dated 2014)

Biological target: TRKA (Homo sapiens (Human), UniProt P04629)
Assay: Isolated TRK enzyme assay (HTRF KinEASE-TK), TRKA
Assay type: biochemical
Details: read-out: Trka enzyme (IC50)

Sequence of TRKA (P04629 441-796): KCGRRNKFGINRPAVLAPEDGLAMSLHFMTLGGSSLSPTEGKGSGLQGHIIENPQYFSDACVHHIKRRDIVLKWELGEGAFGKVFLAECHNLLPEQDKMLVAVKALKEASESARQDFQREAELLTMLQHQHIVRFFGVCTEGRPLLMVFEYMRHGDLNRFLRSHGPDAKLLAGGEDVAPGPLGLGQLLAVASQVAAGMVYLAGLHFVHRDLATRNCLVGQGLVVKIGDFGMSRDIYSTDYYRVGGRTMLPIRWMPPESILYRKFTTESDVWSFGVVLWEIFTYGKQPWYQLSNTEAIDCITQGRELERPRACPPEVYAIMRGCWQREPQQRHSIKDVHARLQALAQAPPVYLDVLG

| SMILES | IC50 [nM] |
| --- | --- |
| CC(C)n1cc(C(=O)c2c[nH]c(=O)c(NC(=O)Cc3ccc(Cl)cc3)c2)c2cncnc21 [Example 589, 2-(4-chlorophenyl)-N-(2-oxo-5-{[7-(propan-2-yl)-7H-pyrrolo[2,3-d]pyrimidin-5-yl]carbonyl}-1,2-dihydropyridin-3-yl)acetamide] | 31.3 |
| NC(=O)Cn1cc(C(=O)c2cncc(NC(=O)Cc3ccc(Cl)cc3)c2)c2cncnc21 [Example 303, N-(5-{[7-(2-amino-2-oxoethyl)-7H-pyrrolo[2,3-d]pyrimidin-5-yl]carbonyl}pyridin-3-yl)-2-(4-chlorophenyl)acetamide] | 1220 |
| O=C(Cc1ccc2cccnc2c1)Nc1cncc(C(=O)c2cn(C(CO)CO)c3ncncc23)c1 [Example 272, N-(5-(7-(1,3-dihydroxypropan-2-yl)-7H-pyrrolo[2,3-d]pyrimidine-5-carbonyl)pyridin-3-yl)-2-(quinolin-7-yl)acetamide] | 697 |
| CC(C)n1cc(C(=O)c2cncc(N(C)C(=O)Cc3ccc(C#N)cc3)c2)c2cncnc21 [Example 298, 2-(4-cyanophenyl)-N-{5-[(7-isopropyl-7H-pyrrolo[2,3-d]pyrimidin-5-yl)carbonyl]pyridin-3-yl}-N-methylacetamide] | 1460 |
| O=C(Cc1cccc(C(F)(F)F)c1)Nc1cncc(C(=O)c2cn(C(CO)CO)c3ncncc23)c1 [Example 274, N-(5-(7-(1,3-dihydroxypropan-2-yl)-7H-pyrrolo[2,3-d]pyrimidine-5-carbonyl)pyridin-3-yl)-2-(3-(trifluoromethyl)phenyl)acetamide] | 38.6 |
| CC(C)n1cc(C(=O)c2cncc(NC(=O)c3c[nH]c4cnccc34)c2)c2cncnc21 [Example 421, 1H-Pyrrolo[2,3-c]pyridine-3-carboxylic acid [5-(7-isopropyl-7H-pyrrolo[2,3-d]pyrimidine-5-carbonyl)-pyridin-3-yl]amide] | 1730 |
| CC(C)n1cc(C(=O)c2c[nH]c(=O)c(NC(=O)Cn3cc(C(F)(F)F)nn3)c2)c2cncnc21 [Example 591, N-(2-oxo-5-{[7-(propan-2-yl)-7H-pyrrolo[2,3-d]pyrimidin-5-yl]carbonyl}-1,2-dihydropyridin-3-yl)-2-[4-(trifluoromethyl)-1H-1,2,3-triazol-1-yl]acetamide] | 142 |
| Cn1cc(C(=O)c2cncc(NC(=O)Cc3ccc(S(C)(=O)=O)cc3)c2)c2cncnc21 [Example 173, N-{5-[(7-methyl-7H-pyrrolo[2,3-d]pyrimidin-5-yl)carbonyl]pyridin-3-yl}-2-[4-(methylsulfonyl)phenyl]acetamide] | 9810 |
| CC(CO)n1cc(C(=O)c2cncc(NC(=O)Cc3cccc(C(F)(F)F)c3)c2)c2cnc(N)nc21 (single isomer, unassigned) [Example 213, N-(5-{[2-amino-7-(2-hydroxy-1-methylethyl)-7H-pyrrolo[2,3-d]pyrimidin-5-yl]carbonyl}pyridin-3-yl)-2-[3-(trifluoromethyl)phenyl]acetamide] | 3.03 |
| CC(C)n1cc(C(=O)c2cncc(NC(=O)c3ccnc4ncsc34)c2)c2cncnc21 [Example 514, Thiazolo[4,5-b]pyridine-7-carboxylic acid [5-(7-isopropyl-7H-pyrrolo[2,3-d]pyrimidine-5-carbonyl)-pyridin-3-yl]-amide] | 9800 |
| Cc1cc(C(=O)Nc2cncc(C(=O)c3cn(C(C)C)c4ncncc34)c2)ccn1 [Example 422, N-[5-(7-Isopropyl-7H-pyrrolo[2,3-d]pyrimidine-5-carbonyl)-pyridin-3-yl]-2-methyl-isonicotinamide] | 451 |
| CC(C)n1cc(C(=O)c2cncc(NC(=O)c3ccc(OC(F)(F)F)cc3)c2)c2cncnc21 [Example 346, N-(5-{[7-(propan-2-yl)-7H-pyrrolo[2,3-d]pyrimidin-5-yl]carbonyl}pyridin-3-yl)-4-(trifluoromethoxy)benzamide] | 253 |
| CC(C)(CO)n1cc(C(=O)c2cncc(NC(=O)Cc3ccc(C(F)(F)F)cn3)c2)c2cnc(N)nc21 [Example 562, N-{5-[2-Amino-7-(2-hydroxy-1,1-dimethyl-ethyl)-7H-pyrrolo[2,3-d]pyrimidine-5-carbonyl]-pyridin-3-yl}-2-(5-trifluoromethyl-pyridin-2-yl)-acetamide] | 3.75 |
| O=C(Cc1ccc(OC(F)(F)F)cc1)Nc1cncc(C(=O)c2cn(C(CO)CO)c3ncncc23)c1 [Example 280, N-[5-({7-[2-hydroxy-1-(hydroxymethyl)ethyl]-7H-pyrrolo[2,3-d]pyrimidin-5-yl}carbonyl)pyridin-3-yl]-2-[4-(trifluoromethoxy)phenyl]acetamide] | 498 |
| CC(C)n1cc(C(=O)c2cncc(NC(=O)Cc3cn(C4CC4)nc3C(F)(F)F)c2)c2cncnc21 [Example 352, 2-(1-Cyclopropyl-3-trifluoromethyl-1H-pyrazol-4-yl)-N-[5-(7-isopropyl-7H-pyrrolo[2,3-d]pyrimidine-5-carbonyl)-pyridin-3-yl]-acetamide] | 62.6 |
| CC(C(=O)N(C)C)n1cc(C(=O)c2cncc(NC(=O)Cc3ccc(Cl)cc3)c2)c2cncnc21 (racemic) [Example 230, 2-{5-[(5-{[(4-Chlorophenyl)acetyl]amino}pyridin-3-yl)carbonyl]-7H-pyrrolo[2,3-d]pyrimidin-7-yl}-N,N-dimethylpropanamide] | 63.7 |

| SMILES | IC50 [nM] |
| --- | --- |
| CC(C)n1cc(C(=O)c2cncc(NC(=O)Cc3cnn(C4CC4)c3C(F)(F)F)c2)c2cncnc21 [Example 315, 2-(1-Cyclopropyl-5-trifluoromethyl-1H-pyrazol-4-yl)-N-[5-(7-isopropyl-7H-pyrrolo[2,3-d]pyrimidine-5-carbonyl)-pyridin-3-yl]-acetamide] | 39.1 |
| CC(C)c1cn(CC(=O)Nc2cncc(C(=O)c3cn(C(C)(C)CO)c4ncncc34)c2)nn1 [Example 227, N-(5-{[7-(2-hydroxy-1,1-dimethylethyl)-7H-pyrrolo[2,3-d]pyrimidin-5-yl]carbonyl}pyridin-3-yl)-2-(4-isopropyl-1H-1,2,3-triazol-1-yl)acetamide] | 12.5 |
| CC(C)n1cc(C(=O)c2cncc(NC(=O)c3c(C(F)(F)F)nn(C)c3Cl)c2)c2cncnc21 [Example 441, 5-Chloro-1-methyl-3-trifluoromethyl-1H-pyrazole-4-carboxylic acid [5-(7-isopropyl-7H-pyrrolo[2,3-d]pyrimidine-5-carbonyl)-pyridin-3-yl]-amide] | 8390 |
| CC(C)n1cc(C(=O)c2cncc(NC(=O)Cn3cccn3)c2)c2cncnc21 [Example 114, N-{5-[(7-isopropyl-7H-pyrrolo[2,3-d]pyrimidin-5-yl)carbonyl]pyridin-3-yl}-2-(1H-pyrazol-1-yl)acetamide] | 976 |
| CC(C)n1cc(C(=O)c2cncc(NC(=O)Cc3cnc4ncnn4c3)c2)c2cncnc21 [Example 375, N-[5-(7-Isopropyl-7H-pyrrolo[2,3-d]pyrimidine-5-carbonyl)-pyridin-3-yl]-2-[1,2,4]triazolo[1,5-a]pyrimidin-6-yl-acetamide] | 9800 |
| CC(C)n1cc(C(=O)c2cncc(NC(=O)c3ccc(Cl)cn3)c2)c2cncnc21 [Example 466, 5-Chloro-pyridine-2-carboxylic acid[5-(7-isopropyl-7H-pyrrolo[2,3-d]pyrimidine-5-carbonyl)-pyridin-3-yl]-amide] | 400 |
| Cn1cc(C(=O)c2cncc(NC(=O)Cc3cc(F)c(F)c(F)c3)c2)c2cncnc21 [Example 187, N-{5-[(7-methyl-7H-pyrrolo[2,3-d]pyrimidin-5-yl)carbonyl]pyridin-3-yl}-2-(3,4,5-trifluorophenyl)acetamide] | 2630 |
| CC(C)n1cc(C(=O)c2cncc(NC(=O)Cn3cc4cc(F)ccc4n3)c2)c2cncnc21 [Example 94, 2-(5-fluoro-2H-indazol-2-yl)-N-{5-[(7-isopropyl-7H-pyrrolo[2,3-d]pyrimidin-5-yl)carbonyl]pyridin-3-yl}acetamide] | 54.8 |
| C[C@@H](CO)n1cc(C(=O)c2cncc(NC(=O)Cc3ccc(OC(F)F)cc3)c2)c2cncnc21 [Example 531, 2-(4-Difluoromethoxy-phenyl)-N-{5-[7-((S)-2-hydroxy-1-methyl-ethyl)-7H-pyrrolo[2,3-d]pyrimidine-5-carbonyl]-pyridin-3-yl}-acetamide] | 52.4 |
| CC(C)(C)n1cc(C(=O)c2cncc(NC(=O)Cc3ccc(Br)cn3)c2)c2cnc(N)nc21 [Example 529, N-[5-(2-Amino-7-tert-butyl-7H-pyrrolo[2,3-d]pyrimidine-5-carbonyl)-pyridin-3-yl]-2-(5-bromo-pyridin-2-yl)-acetamide] | 3.93 |
| Cc1cccc(-c2nnnn2CC(=O)Nc2cncc(C(=O)c3cn(C(C)C)c4ncncc34)c2)c1 [Example 364, N-[5-(7-Isopropyl-7H-pyrrolo[2,3-d]pyrimidine-5-carbonyl)-pyridin-3-yl]-2-(5-m-tolyl-tetrazol-1-yl)-acetamide] | 5040 |
| Nc1ncc2c(C(=O)c3cncc(NC(=O)Cc4ccc(F)cn4)c3)cn(C34CC(C3)C4)c2n1 [Example 578, N-[5-(2-Amino-7-bicyclo[1.1.1]pent-1-yl-7H-pyrrolo[2,3-d]pyrimidine-5-carbonyl)-pyridin-3-yl]-2-(5-fluoro-pyridin-2-yl)-acetamide] | 6.07 |
| CC(C)n1cc(C(=O)c2cncc(NC(=O)Cc3cn(C)c4ccccc34)c2)c2cncnc21 [Example 136, N-{5-[(7-isopropyl-7H-pyrrolo[2,3-d]pyrimidin-5-yl)carbonyl]pyridin-3-yl}-2-(1-methyl-1H-indol-3-yl)acetamide] | 334 |
| COc1ccc(CC(=O)Nc2cncc(C(=O)c3cn(C(C)C)c4ncncc34)c2)cn1 [Example 152, N-{5-[(7-isopropyl-7H-pyrrolo[2,3-d]pyrimidin-5-yl)carbonyl]pyridin-3-yl}-2-(6-methoxypyridin-3-yl)acetamide] | 82.5 |
| Cc1nn(C)cc1C(=O)Nc1cncc(C(=O)c2cn(C(C)C)c3ncncc23)c1 [Example 394, 1,3-Dimethyl-1H-pyrazole-4-carboxylic acid [5-(7-isopropyl-7H-pyrrolo[2,3-d]pyrimidine-5-carbonyl)-pyridin-3-yl]-amide] | 7120 |
| CC(C)n1ncc(CC(=O)Nc2cncc(C(=O)c3cn(C(C)C)c4ncncc34)c2)c1C(F)(F)F [Example 112, N-{5-[(7-isopropyl-7H-pyrrolo[2,3-d]pyrimidin-5-yl)carbonyl]pyridin-3-yl}-2-[1-isopropyl-5-(trifluoromethyl)-1H-pyrazol-4-yl]acetamide] | 57.8 |
